“Also recorded” adds a separate entry of the source.
Legend:
[1] = system: delayed rectifier K^+ channel; assay: whole-cell patch clamp, delayed rectifier K^+ channel (steady-state outward K^+ current at +40 mV) in rat fungiform taste receptor cells; type: cell-based, rat (Sprague-Dawley); details: for effect on outward K^+ currents, specificity test: 10 μM, >10 min (maximal effect), significance by paired t test; for stimulation of taste receptor cells: summary statement
Excerpt: (§1) The effects of free fatty acids ("FFAs") on taste buds isolated from rat fungiform papillae were examined to determine if a chemosensory (i.e. non-textural) cue for fats is located in the mouth. The methods used to isolate TRCs were generally as described in Behe et al., "Membrane Currents in Taste Cells of the Rat Fungiform Papilla: Evidence for Two Types of Ca Currents and Inhibition of K Currents by Saccharin," Journal of General Physiology, Vol. 96, pp. 1061-1084 (1990); Doolin et al., "Distribution and Characterization of Functional Amiloride-sensitive Sodium Channels in Rat Tongue," Journal of General Physiology, Vol. 107. pp. 545-554 (1996); and Gilbertson et al., "Proton Currents Through Amiloride-sensitive Na^+ Channels in Isolated Hamster Taste Cells: Enhancement by Vasopressin and cAMP," Neuron, Vol. 10, pp. 931-942 (1993).
(§2) Individual fungiform taste buds were isolated from the tongues of 2- to 5-month-old male Sprague-Dawley rats (Harlan Sprague Dawley, Indianapolis,Ind.). Animals were housed individually in polycarbonate cages with food (Purina #5001, Purina Mills, St. Louis, Mo.) provided ad lib. The room containing the rats was maintained at 21-23° C. on a 0700-1900 h light-dark cycle. All animal care and experimental procedures were in accordance with National Institutes of Health guidelines, and were approved by the Institutional Animal Care and Use Committee of the Pennington Biomedical Research Center.
(§3) Tongues were removed from euthanized rats, and were immediately placed in ice-cold Tyrode's solution. To remove the lingual epithelium containing the taste buds from the underlying muscle layer, approximately 1.0 ml of Tyrode's solution containing 0.3 mg/ml collagenase A (Boehringer Mannheim Corp., Indianapolis, Ind.), 2.5 mg/ml dispase (grade II; Boehringer Mannheim) and 1.0 mg/ml trypsin inhibitor (type I-S; Sigma Chemical Co., St. Louis, Mo.) was injected below the epithelium. The injected tongue was placed in Ca--Mg free Tyrode's solution and bubbled with O2 for 33-35 min. The lingual epithelium was removed and pinned serosal side up, allowing access to the taste buds. Fungiform taste buds were removed individually by gentle suction with a large, firepolished pipette (~200 μm diameter), and were plated onto Cell-Tak™-coated microscope slides (Collaborative Biomedical Prod., Bedford, Mass.) fitted with an O-ring which served as a recording chamber. Once plated, cells were perfused continually with Tyrode's or various test solutions. Taste buds isolated in this manner were used for up to 6 hours without any noticeable morphological or physiological decrement.
(§4) All chemicals were obtained from Sigma Chemical Corporation (St. Louis, Mo.) unless otherwise indicated. Normal extracellular solution (Tyrode's) contained (in mM): NaCl, 140; KCl, 5; CaCl2, 1; MgCl2, 1; HEPES (N-[2-hydroxyethyl] piperazine-N'-[2-ethanesulfonic acid), 10; glucose, 10; and sodium pyruvate, 10. The pH was adjusted to 7.40 with NaOH. In Ca^2+ --Mg^2+ free Tyrode's solution, 2 mM BAPTA (1,2-bis(2-aminophenoxy) ethane-N,N,N',N'-tetraacetic acid) (Molecular Probes, Eugene, Oreg.) replaced CaCl2 and MgCl2. Other components were identical to Tyrode's solution. Intracellular (pipette) solution contained (in mM): KCl, 140; CaCl2, 1 [free Ca^2+ was ~10^-8 M]; MgCl2, 2; HEPES, 10; EGTA (ethylene glycol-bis(β-aminoethylether)-N,N,N',N'-tetraacetic acid), 11; and ATP, 3. The pH was adjusted to 7.20 with KOH.
(§5) Free fatty acids (FFAs) were stored below -20° C. until the day of use, when they were dissolved in warm ethanol and diluted to final working concentrations in Tyrode's solution. Final ethanol concentrations in Tyrode's were below 0.1%; the ethanol had no effect on ionic currents in any TRCs. All FFAs were applied by bath perfusion. In some experiments, FFA-containing solutions were bubbled continuously with nitrogen to retard oxygenation. […]

[2] = system: outward K^+ currents in rat fungiform taste receptor cells; assay: whole-cell patch clamp, total outward voltage-activated currents in rat fungiform taste receptor cells; type: cell-based, rat (Sprague-Dawley)
Excerpt: as §1
Individual fungiform taste buds were isolated from the tongues of 2- to 5-month-old male Sprague-Dawley rats (Harlan Sprague Dawley, Indianapolis,Ind.). Animals were housed individually in polycarbonate cages with food (Purina #5001, Purina Mills, St. Louis, Mo.) provided ad lib. The room containing the rats was maintained at 21-23° C. on a 0700-1900 h light-dark cycle. […]

[3] = system: delayed rectifying K^+ channels; assay: patch clamp, delayed rectifying K^+ channels of TRCs isolated from Osborne-Mendel rats; type: cell-based
Excerpt: (§6) To determine if there is a link between the sensitivity of TRCs to PUFAs and dietary fat preferences, the PUFA-sensitivities of TRCs using patch clamp techniques were compared on TRCs isolated from Osborne-Mendel ("O-M") rats and S5B/P1 rats, strains with different dietary preferences. O-M rats prefer fat over carbohydrate, while S5B/P1 rats prefer carbohydrate over fat. […] Rats whose TRCs were more sensitive to the fatty acids have a preference for a lower-fat diet; while rats whose TRCs are less sensitive to fatty acids seek diets that are higher in fat.

[4] = system: delayed rectifying K^+ channels; assay: patch clamp, delayed rectifying K^+ channels of TRCs isolated from S5B/P1 rats; type: cell-based; details: for inhibition of the delayed rectifying K^+ channels, S5B/P1 rats: TRCs from S5B/P1 rats; for sensitivity of S5B/P1 TRCs to inhibition compared with O-M TRCs: 10 μM, versus TRCs from O-M rats
Excerpt: as §6

[5] = system: rat fungiform taste receptor cells; assay: current clamp, stimulus-induced depolarization of rat fungiform taste receptor cells; type: cell-based, rat (Sprague-Dawley)
Method: Voltage-activated currents were recorded from individual taste receptor cells maintained in the taste bud using the whole-cell patch clamp configuration, as generally described in Hamill et al., "Improved Patch-clamp Techniques for High-resolution Current Recording from Cells and Cell-free Membrane Patches," Pflugers Arch., Vol. 391, pp. 85-100 (1981). Patch pipettes were made by pulling mlcrohematocrit tubes (Scientific Products, McGaw Park, Ill.) on a Flaming/Brown micropipette puller (model P-97; Sutter Instrument Co., Novato, Calif.), and subsequently firepolishing on a microforge (model MF-9; Narishige, Tokyo) to a resistance between 5 and 10 M.OMEGA. when filled with intracellular solution.
Since arachidonic acid and linoleic acid inhibit K^+ currents in TRCs and these channels play crucial roles in repolarizing the cells following activity, the presence of such FFAs should affect how these cells respond during stimulus-induced activity. This prediction was tested in cells in current clamp mode during perfusion of saline, both in the absence and presence of 10 μM linoleic acid. In response to current injection (+18 pA), TRCs typically fired 0-3 action potentials, followed by a sustained depolarization lasting as long as the stimulus was present. […] On average, the sustained depolarization during current injection (18 pA) in the rat fungiform taste receptor cells was 22.4±8.5 mV during perfusion of physiological saline (n=7 cells). Addition of 10 μM linoleic acid to the perfusate of the same cells increased the mean voltage response to 36.8±9.2 mV (n=7), an increase of 64%.

[6] = system: inwardly rectifying K^+ channels (Kir); assay: whole-cell patch clamp, inwardly rectifying K^+ channels (Kir) at -130 mV in rat fungiform taste receptor cells; type: cell-based, rat (Sprague-Dawley); details: n=5 cells
Excerpt: as §1, §2, §3, §4, §5

O=S(=O)(c1cccc2cnccc12)N1CCNCC1 [HA-100, reference compound]
effect of PKC/PKA inhibitor on linoleic acid-induced inhibition of outward K^+ currents ([1]; 25 μM, intracellular, n=6 cells): did not prevent linoleic acid-induced inhibition of outward K^+ currents

CCCCC/C=C\C/C=C\C/C=C\C/C=C\CCCC(=O)OC [arachidonic acid methyl ester]
modulation of TRC K^+ currents by esterified fatty acid ([2]; arachidonic acid methyl ester: n=5 cells): ineffective

CCCCCCCC/C=C\CCCCCCCCCCCC(=O)O [erucic acid, reference compound]
effect on outward K^+ currents, specificity test [1]: did not have significant effects

Nc1nc2c(ncn2[C@@H]2O[C@H](COP(=O)(O)OP(O)(O)=S)[C@@H](O)[C@H]2O)c(=O)[nH]1 [guanosine 5'-O-(2-thiodiphosphate), reference compound]
effect of G protein inhibitor on FFA effects on outward currents ([1]; 0.5 mM in the patch pipette, n=5): did not inhibit the effects of FFA on outward currents

CCCCCCCCCCCC(=O)O [lauric acid, reference compound]
inhibition of the delayed rectifying K^+ channels, O-M rats [3]: ineffective
inhibition of the delayed rectifying K^+ channels, S5B/P1 rats [4]: ineffective

CCCCC/C=C\C/C=C\CCCCCCCC(=O)O [linoleic acid]
effect of intracellular application on outward K^+ currents ([1]; 10 μM in the pipette (intracellular) solution, up to 30 min or more): no effect
effect on outward K^+ currents, specificity test [1]: significantly reduced outward K^+ currents
effect on outward K^+ currents on subsequent extracellular addition ([1]; linoleic acid also in pipette, added extracellularly, n=11 cells): outward K^+ currents were inhibited
inhibition of outward K^+ currents in metyrapone-treated TRCs ([1]; metyrapone 1 mM, 15 min, n=6 cells): still inhibited by linoleic acid in a quantitatively similar fashion
stimulation of taste receptor cells [1]: stimulate taste receptor cells
relative potency among the FFAs tested ([1]; trend in effects on both types of K^+ currents): the most potent of the FFAs tested
effect on stimulus-induced depolarization (in words) ([5]; 10 μM linoleic acid): significantly enhanced stimulus-induced depolarization of TRCs; also recorded: increase in the magnitude of stimulus-induced depolarization of taste receptor cells; also recorded: prolonged "tail" potential following termination of the stimulus
sustained depolarization during current injection (mean voltage response) ([5]; 10 μM linoleic acid, 18 pA, n=7 cells, saline 22.4±8.5 mV): 36.8±9.2 mV
activation at 10 µM ([5]; Rattus norvegicus, 10 μM, 18 pA, n=7, read-out: increase of mean voltage response over saline): 64%
inhibition of the delayed rectifying K^+ channels, O-M rats [3]: inhibited the delayed rectifying K^+ channels in a concentration-dependent manner
sensitivity of S5B/P1 TRCs to inhibition compared with O-M TRCs [4]: significantly more sensitive to inhibition
inhibition of the delayed rectifying K^+ channels, S5B/P1 rats [4]: inhibited the delayed rectifying K^+ channels in a concentration-dependent manner

CCCCC/C=C/C/C=C/CCCCCCCC(=O)O [linolelaidic acid, reference compound]
effect on outward K^+ currents, specificity test [1]: did not significantly affect outward K^+ currents
effect on outward K^+ currents, specificity test ([1]; listed as linolelaidic): no effect on outward K^+ currents

CC/C=C/C/C=C/C/C=C/CCCCCCCC(=O)O [linolenelaidic acid, reference compound]
effect on outward K^+ currents, specificity test [1]: no effect on outward K^+ currents; also recorded: did not significantly affect outward K^+ currents

CC(C)(C(=O)c1cccnc1)c1cccnc1 [metyrapone]
inhibition at 1000 µM ([2]; Rattus norvegicus, 1 mM, n=6 cells, read-out: inhibition of the outward current by metyrapone alone): 23.8 ± 9.7%

CCCCCCCC/C=C\CCCCCCCCCCCCCC(=O)O [nervonic acid, reference compound]
effect on outward K^+ currents, specificity test [1]: did not have significant effects

CCCCCCCC/C=C\CCCCCCCC(=O)O [oleic acid, reference compound]
effect on outward K^+ currents, specificity test [1]: did not have significant effects
enhancement of Kir [6]: did not enhance Kir

CCCCCC/C=C\CCCCCCCC(=O)O [palmitoleic acid, reference compound]
effect on outward K^+ currents, specificity test [1]: did not have significant effects

linolenic acid
effect on outward K^+ currents, specificity test [1]: significantly reduced outward K^+ currents
stimulation of taste receptor cells [1]: stimulate taste receptor cells
inhibition of the delayed rectifying K^+ channels, O-M rats [3]: inhibited the delayed rectifying K^+ channels in a concentration-dependent manner
sensitivity of S5B/P1 TRCs to inhibition compared with O-M TRCs [4]: significantly more sensitive to inhibition
inhibition of the delayed rectifying K^+ channels, S5B/P1 rats [4]: inhibited the delayed rectifying K^+ channels in a concentration-dependent manner
